This passage reports selectivity ratio and EC50 results from ChEMBL document CHEMBL4392885, “Investigation of Premyrsinane and Myrsinane Esters in Euphorbia cupanii and Euphobia pithyusa with MS2LDA and Combinatorial Molecular Network Annotation Propagation” (J Nat Prod, 2019).

Data set [1] in a line: Selectivity index, ratio of CC50 for African green monkey Vero A cells to EC50 for Chikungunya virus Indian ocean strain 899 infected in African green monkey Vero A cells. The format is toxicity. To be noted: read-out: Ratio CC50/EC50.
Data set [2] deals with Chikungunya virus. The data set is described as follows: Antiviral activity against Chikungunya virus Indian ocean strain 899 infected in African green monkey Vero A cells assessed as reduction in viral-induced cytopathic effect after 6 to 7 days by MTS/PMS assay. The format is functional, organism-based. To be noted: Indian ocean strain 899, Vero. A general note: Protection from cytopathic effect is a common read-out in antiviral testing.

Take `CCCCC/C=C/C=C\C(=O)O[C@@H]1[C@@H](C)[C@@]2(O)[C@@H](C(=O)C(CO)=C[C@]3(O)C(=O)C(C)=C[C@@H]23)[C@@H]2C(C)(C)[C@]12OC(=O)C(C)C`: the selectivity ratio in data set [1] was determined as 6.3. Also, the concentration for a half-maximal effect (EC50) (as a rule, the concentration at which the effect is half-maximal) in data set [2] came to 4500 nM.
The corresponding values for `CCCCC/C=C/C=C\C(=O)O[C@@H]1[C@@H](C)[C@@]2(O)[C@@H](C=C(CO)C[C@]3(O)C(=O)C(C)=C[C@@H]23)[C@@H]2C(C)(C)[C@]12OC(=O)C(C)C` are over 12 and under 800 nM.
For `CCCCC/C=C\C=C\C(=O)O[C@@H]1[C@@H](C)[C@@]2(O)[C@@H](C=C(CO)C[C@]3(O)C(=O)C(C)=C[C@@H]23)[C@@H]2C(C)(C)[C@]12OC(=O)C(C)C`, the selectivity ratio in data set [1] was over 12. In data set [2], the 50% effective concentration (EC50) is under 800 nM.
With `CCCCC/C=C\C=C\C(=O)O[C@@H]1[C@@H](C)[C@@]2(O)[C@@H](C=C(CO)C[C@]3(O)C(=O)C(C)=C[C@@H]23)[C@@H]2C(C)(C)[C@]12OC(=O)C(C)CC` (stereo partly drawn), the selectivity ratio in data set [1] was over 12. The EC50 in data set [2] was under 800 nM.
